Measurements from the CheMixHub viscosity set.

Experiment: xn = mol fraction of the nth substance listed

CCCC#N + CCCCO
viscosity [mPa·s], 101.33 kPa
Conditions | x2 = 0.1001 | x2 = 0.1981 | x2 = 0.2994 | x2 = 0.3979 | x2 = 0.4953 | x2 = 0.5961 | x2 = 0.6981 | x2 = 0.7984 | x2 = 0.8991
298.15 K | 0.58 | 0.623 | 0.684 | 0.764 | 0.869 | 1.012 | 1.211 | 1.482 | 1.885
308.15 K | 0.515 | 0.547 | 0.596 | 0.66 | 0.741 | 0.852 | 1.003 | 1.208 | 1.506
318.15 K | 0.461 | 0.487 | 0.526 | 0.575 | 0.64 | 0.726 | 0.842 | 1.002 | 1.221

Brc1ccccc1 + CCCCOC(C)=O
viscosity [mPa·s], 101 kPa
Conditions | 298.15 K | 308.15 K
x2 = 0.0489 | 0.919 | 0.88
x2 = 0.1488 | 0.737 | 0.746
x2 = 0.2514 | 0.615 | 0.649
x2 = 0.3499 | 0.54 | 0.584
x2 = 0.4493 | 0.495 | 0.541
x2 = 0.4965 | 0.482 | 0.526
x2 = 0.5512 | 0.474 | 0.515
x2 = 0.6501 | 0.474 | 0.505
x2 = 0.7497 | 0.496 | 0.51
x2 = 0.8499 | 0.542 | 0.53
x2 = 0.9226 | 0.595 | 0.556

CCCCn1cc[n+](C)c1.O=S(=O)([N-]S(=O)(=O)C(F)(F)F)C(F)(F)F + CCCCn1cc[n+](C)c1.F[B-](F)(F)F
Conditions | viscosity [mPa·s]
323.15 K, 100 kPa, x1 = 0.751 | 23.85

CCCCn1cc[n+](C)c1.O=S(=O)([N-]S(=O)(=O)C(F)(F)F)C(F)(F)F + CCCCn1cc[n+](C)c1.F[P-](F)(F)(F)(F)F
Conditions | viscosity [mPa·s]
318.15 K, 100 kPa, x1 = 0.25 | 58.45

C1COCCO1 + CCCO
viscosity [mPa·s]
Conditions | 298.15 K | 303.15 K | 308.15 K | 313.15 K
101 kPa, x1 = 0.4 | 1.131 | – | – | –
101.3 kPa, x1 = 0.0923 | 1.609 | 1.42 | 1.289 | 1.179
101.3 kPa, x1 = 0.122 | 1.499 | 1.332 | 1.209 | 1.1
101.3 kPa, x1 = 0.2236 | 1.284 | 1.15 | 1.057 | 0.9732
101.3 kPa, x1 = 0.2793 | 1.223 | 1.084 | 0.9926 | 0.9135
101.3 kPa, x1 = 0.3323 | 1.158 | 1.065 | 0.9698 | 0.8894
101.3 kPa, x1 = 0.3964 | 1.106 | 1.014 | 0.9229 | 0.8503
101.3 kPa, x1 = 0.4347 | 1.057 | 0.9719 | 0.8966 | 0.8243
101.3 kPa, x1 = 0.5294 | 1.04 | 0.9553 | 0.8788 | 0.8135
101.3 kPa, x1 = 0.5833 | 1.028 | 0.949 | 0.8777 | 0.8149
101.3 kPa, x1 = 0.6365 | 1.028 | 0.9503 | 0.8792 | 0.8185
101.3 kPa, x1 = 0.6538 | 1.033 | 0.9567 | 0.8791 | 0.8196
101.3 kPa, x1 = 0.7379 | 1.051 | 0.9745 | 0.9054 | 0.8374
101.3 kPa, x1 = 0.8132 | 1.085 | 0.9921 | 0.9184 | 0.8578
101.3 kPa, x1 = 0.8989 | 1.117 | 1.028 | 0.9533 | 0.887
